Results on 15 molecules are retold here after patent US12371428B2 (Exelixis, Inc., priority 2019, dated 2025).

Holding throughout (format): cell-based
Assay [1] addresses AXL (phospho-AXL, Gas6-stimulated A-172 glioblastoma cells) (Homo sapiens (Human), UniProt P30530). Briefly: AXL autophosphorylation ELISA in A-172 cells (Example E). As to conditions: cellular activity, read-out: Axl IC50. The method, boiled down: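 Phospho-AXL was measured by ELISA in lysates of Gas6-stimulated A-172 cells, starved 24 h in serum-free medium and exposed 1 h to an 8-point compound dilution at 0.3% DMSO.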
(In general: An ELISA detects its analyte on a solid surface through an enzyme-linked reagent.)

Assay [2] addresses Met (phospho-Met, HGF-stimulated PC-3 prostate cancer cells) (Homo sapiens (Human), UniProt P08581). Put plainly: Met autophosphorylation ELISA in PC-3 cells (Example F). As to conditions: cellular activity, read-out: c-Met IC50. The method, boiled down: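 Sandwich ELISA for phospho-Met (panTyr) in PC-3 lysates. Cells starved 3 h serum-free, compound 1 h (8-pt curve, 0.3% DMSO), HGF 100 ng/mL 10 min. 100% = HGF + DMSO; 0% = HGF + reference inhibitor. IC50 by 4-parameter fit.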

Assay [3] addresses Mer (phospho-Mer, MERTK-transfected 293A cells) (Homo sapiens (Human), UniProt Q12866). Put plainly: Mer autophosphorylation ELISA in transient transfected 293A cells (Example H). As to conditions: cellular activity. In a few lines:
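IC50 from phospho-Mer ELISA of MERTK-transfected 293A cell lysates after 1 h treatment with serially diluted compound in serum-free medium.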

The target of assay [4] is KDR (phospho-KDR, VEGF165-stimulated HUVEC cells) (Homo sapiens (Human), UniProt P35968). Put plainly: KDR autophosphorylation ELISA in HUVEC cells (Example G). As to conditions: cellular activity. The method, boiled down:
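Inhibition of VEGF165-driven KDR autophosphorylation is measured in primary human umbilical vein endothelial cells after 24 h serum deprivation. Compound preincubation lasts 1 h before a 5-minute challenge with 100 ng/mL ligand, and phosphorylated receptor is then measured by ELISA in the lysates.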

[5] abbreviates: AXL autophosphorylation ELISA in A-172 cells.
Setting [6] is: Met autophosphorylation ELISA in PC-3 cells.
Setting [7] is: Mer autophosphorylation ELISA in transient transfected 293A cells.
The mark [8] stands for this setting: KDR autophosphorylation ELISA in HUVEC cells.

Read-outs that look alike come from different tables or passages of the source.

Sequence of KDR (phospho-KDR, VEGF165-stimulated HUVEC cells) (P35968 20-1356): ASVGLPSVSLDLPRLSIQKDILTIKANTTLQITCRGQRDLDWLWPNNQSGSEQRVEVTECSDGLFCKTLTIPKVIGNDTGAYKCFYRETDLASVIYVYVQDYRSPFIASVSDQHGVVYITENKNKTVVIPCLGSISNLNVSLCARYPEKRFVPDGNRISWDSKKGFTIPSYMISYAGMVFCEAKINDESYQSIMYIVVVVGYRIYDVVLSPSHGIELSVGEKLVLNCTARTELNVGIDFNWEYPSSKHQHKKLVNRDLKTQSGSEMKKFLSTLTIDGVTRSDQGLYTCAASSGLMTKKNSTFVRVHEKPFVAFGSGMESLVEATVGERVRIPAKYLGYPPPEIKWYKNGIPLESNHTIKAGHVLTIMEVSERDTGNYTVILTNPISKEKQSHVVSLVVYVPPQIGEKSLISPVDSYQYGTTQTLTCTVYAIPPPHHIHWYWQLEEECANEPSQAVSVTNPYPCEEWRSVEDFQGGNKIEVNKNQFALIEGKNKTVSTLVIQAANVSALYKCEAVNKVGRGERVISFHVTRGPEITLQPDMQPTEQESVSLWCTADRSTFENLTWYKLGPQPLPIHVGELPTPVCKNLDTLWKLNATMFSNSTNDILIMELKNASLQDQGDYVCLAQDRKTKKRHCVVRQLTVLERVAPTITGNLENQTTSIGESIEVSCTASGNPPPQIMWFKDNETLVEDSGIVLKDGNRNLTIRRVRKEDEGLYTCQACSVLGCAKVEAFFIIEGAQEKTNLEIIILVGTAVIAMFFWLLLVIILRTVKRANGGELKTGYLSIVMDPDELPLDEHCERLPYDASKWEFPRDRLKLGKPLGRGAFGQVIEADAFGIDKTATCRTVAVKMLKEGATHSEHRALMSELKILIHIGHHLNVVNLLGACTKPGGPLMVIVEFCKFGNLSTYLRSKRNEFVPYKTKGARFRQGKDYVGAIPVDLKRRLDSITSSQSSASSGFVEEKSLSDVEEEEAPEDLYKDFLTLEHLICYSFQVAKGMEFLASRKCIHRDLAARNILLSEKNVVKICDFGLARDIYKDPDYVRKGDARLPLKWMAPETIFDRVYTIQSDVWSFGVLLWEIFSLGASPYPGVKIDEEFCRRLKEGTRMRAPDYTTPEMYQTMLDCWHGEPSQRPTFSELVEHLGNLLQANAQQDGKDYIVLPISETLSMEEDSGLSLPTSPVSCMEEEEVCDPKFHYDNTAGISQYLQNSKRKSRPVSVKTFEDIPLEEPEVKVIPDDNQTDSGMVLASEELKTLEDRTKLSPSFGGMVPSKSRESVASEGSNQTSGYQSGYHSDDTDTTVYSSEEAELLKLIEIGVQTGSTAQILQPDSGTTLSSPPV
Sequence of Met (phospho-Met, HGF-stimulated PC-3 prostate cancer cells) (P08581 25-1390): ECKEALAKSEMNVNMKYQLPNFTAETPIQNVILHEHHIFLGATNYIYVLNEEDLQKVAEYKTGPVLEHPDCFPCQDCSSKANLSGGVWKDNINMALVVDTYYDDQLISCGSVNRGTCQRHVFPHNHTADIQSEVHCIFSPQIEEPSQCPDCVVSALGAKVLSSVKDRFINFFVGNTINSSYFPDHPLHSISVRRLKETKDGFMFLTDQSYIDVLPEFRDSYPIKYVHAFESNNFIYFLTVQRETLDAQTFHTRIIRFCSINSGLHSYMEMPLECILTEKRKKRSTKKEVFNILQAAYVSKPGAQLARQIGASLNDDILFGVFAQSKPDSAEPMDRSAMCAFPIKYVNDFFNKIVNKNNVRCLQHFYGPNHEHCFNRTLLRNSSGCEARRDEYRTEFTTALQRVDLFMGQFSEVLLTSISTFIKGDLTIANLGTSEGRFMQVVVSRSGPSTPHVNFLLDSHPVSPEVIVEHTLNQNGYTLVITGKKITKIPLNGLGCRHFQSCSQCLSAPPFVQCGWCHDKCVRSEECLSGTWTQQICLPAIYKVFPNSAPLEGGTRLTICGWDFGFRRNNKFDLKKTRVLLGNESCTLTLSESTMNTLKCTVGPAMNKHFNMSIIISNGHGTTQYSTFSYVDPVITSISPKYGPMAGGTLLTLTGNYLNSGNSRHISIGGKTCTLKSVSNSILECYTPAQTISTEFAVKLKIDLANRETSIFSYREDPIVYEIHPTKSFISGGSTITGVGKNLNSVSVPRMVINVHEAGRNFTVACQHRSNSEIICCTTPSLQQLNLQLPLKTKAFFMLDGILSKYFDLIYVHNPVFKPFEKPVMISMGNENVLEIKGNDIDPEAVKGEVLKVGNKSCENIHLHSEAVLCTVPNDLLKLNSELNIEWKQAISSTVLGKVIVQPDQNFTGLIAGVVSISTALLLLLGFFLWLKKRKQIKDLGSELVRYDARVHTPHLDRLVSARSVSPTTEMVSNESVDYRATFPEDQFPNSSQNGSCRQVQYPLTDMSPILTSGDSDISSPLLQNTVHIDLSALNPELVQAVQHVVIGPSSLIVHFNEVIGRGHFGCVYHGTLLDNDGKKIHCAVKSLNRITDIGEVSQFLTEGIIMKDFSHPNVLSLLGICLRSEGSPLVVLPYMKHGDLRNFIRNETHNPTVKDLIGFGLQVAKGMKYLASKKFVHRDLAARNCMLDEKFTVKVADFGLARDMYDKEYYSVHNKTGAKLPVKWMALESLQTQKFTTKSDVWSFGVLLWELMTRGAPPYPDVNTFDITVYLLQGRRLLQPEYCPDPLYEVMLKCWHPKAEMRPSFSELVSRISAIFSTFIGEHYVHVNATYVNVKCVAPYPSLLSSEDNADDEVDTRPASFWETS
Sequence of AXL (phospho-AXL, Gas6-stimulated A-172 glioblastoma cells) (P30530 26-894): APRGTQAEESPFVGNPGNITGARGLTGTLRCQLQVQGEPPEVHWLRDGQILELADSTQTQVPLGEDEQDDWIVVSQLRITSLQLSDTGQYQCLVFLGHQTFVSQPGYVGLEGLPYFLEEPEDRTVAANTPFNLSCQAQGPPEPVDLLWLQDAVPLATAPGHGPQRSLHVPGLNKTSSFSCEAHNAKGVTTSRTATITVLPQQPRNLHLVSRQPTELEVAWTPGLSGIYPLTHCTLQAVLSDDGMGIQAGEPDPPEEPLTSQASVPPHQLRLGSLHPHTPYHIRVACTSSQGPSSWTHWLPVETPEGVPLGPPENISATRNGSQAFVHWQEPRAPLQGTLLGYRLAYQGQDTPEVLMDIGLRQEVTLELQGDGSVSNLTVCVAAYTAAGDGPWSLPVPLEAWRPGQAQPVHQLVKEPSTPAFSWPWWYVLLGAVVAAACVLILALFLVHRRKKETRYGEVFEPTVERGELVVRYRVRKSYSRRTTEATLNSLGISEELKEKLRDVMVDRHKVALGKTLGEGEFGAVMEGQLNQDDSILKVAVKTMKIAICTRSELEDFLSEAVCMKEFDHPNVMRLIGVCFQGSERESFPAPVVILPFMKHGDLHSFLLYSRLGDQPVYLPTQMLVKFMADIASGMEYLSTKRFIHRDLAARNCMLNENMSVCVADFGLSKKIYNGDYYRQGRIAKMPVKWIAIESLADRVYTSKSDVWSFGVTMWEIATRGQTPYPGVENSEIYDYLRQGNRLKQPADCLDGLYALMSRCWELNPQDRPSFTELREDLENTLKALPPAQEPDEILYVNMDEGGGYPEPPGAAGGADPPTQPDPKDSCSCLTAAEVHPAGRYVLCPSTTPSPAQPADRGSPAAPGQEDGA
Sequence of Mer (phospho-Mer, MERTK-transfected 293A cells) (Q12866 21-999): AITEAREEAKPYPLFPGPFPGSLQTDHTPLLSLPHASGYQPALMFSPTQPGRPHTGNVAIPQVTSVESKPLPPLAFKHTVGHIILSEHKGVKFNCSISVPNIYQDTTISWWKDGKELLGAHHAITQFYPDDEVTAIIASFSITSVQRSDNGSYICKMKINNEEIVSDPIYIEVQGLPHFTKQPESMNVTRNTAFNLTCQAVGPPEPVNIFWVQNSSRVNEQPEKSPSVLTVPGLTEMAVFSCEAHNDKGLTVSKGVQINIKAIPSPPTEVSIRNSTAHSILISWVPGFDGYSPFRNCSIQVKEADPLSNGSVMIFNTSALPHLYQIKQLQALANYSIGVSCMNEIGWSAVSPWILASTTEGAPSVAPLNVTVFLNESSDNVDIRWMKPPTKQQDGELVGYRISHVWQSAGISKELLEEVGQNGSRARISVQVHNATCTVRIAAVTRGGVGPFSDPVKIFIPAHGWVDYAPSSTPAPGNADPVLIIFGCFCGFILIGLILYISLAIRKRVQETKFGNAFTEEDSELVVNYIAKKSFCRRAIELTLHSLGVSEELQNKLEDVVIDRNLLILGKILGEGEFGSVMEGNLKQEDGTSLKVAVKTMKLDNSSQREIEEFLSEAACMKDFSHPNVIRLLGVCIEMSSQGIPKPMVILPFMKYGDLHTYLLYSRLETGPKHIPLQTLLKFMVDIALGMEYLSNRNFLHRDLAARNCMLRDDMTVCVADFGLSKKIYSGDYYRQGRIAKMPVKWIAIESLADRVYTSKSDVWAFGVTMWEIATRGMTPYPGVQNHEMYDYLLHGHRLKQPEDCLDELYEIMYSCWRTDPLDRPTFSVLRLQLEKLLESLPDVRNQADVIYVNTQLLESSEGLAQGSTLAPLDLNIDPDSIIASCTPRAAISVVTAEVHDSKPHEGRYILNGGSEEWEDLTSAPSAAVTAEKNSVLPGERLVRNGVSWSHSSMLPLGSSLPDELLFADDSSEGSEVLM

In the case of `COc1cc2nccc(Oc3ccc(NC(=O)c4c(C)c(F)cn(-c5ccc(F)cc5)c4=O)cc3)c2nc1OC` [Compound 665, N-[4-[(6,7-dimethoxy-1,5-naphthyridin-4-yl)oxy]phenyl]-5-fluoro-1-(4-fluorophenyl)-4-methyl-2-oxopyridine-3-carboxamide], the IC50 (in general, the midpoint of a concentration-inhibition curve) was under 100 nM in assay [1] (setting [5]), under 100 nM in assay [2] (setting [6]), under 100 nM in assay [3] (setting [7]) and 100 to 300 nM in assay [4] (setting [8]).

In the case of `COc1cnc2c(Oc3ccc(NC(=O)c4c5n(c(C)c(-c6ccc(F)cc6)c4=O)CCOC5)cc3F)ccnc2c1` [Compound 783, N-[3-fluoro-4-[(7-methoxy-1,5-naphthyridin-4-yl)oxy]phenyl]-7-(4-fluorophenyl)-6-methyl-8-oxo-3,4-dihydro-1H-pyrido[2,1-c][1,4]oxazine-9-carboxamide], the IC50 is under 100 nM in assay [1] (setting [5]), under 100 nM in assay [2] (setting [6]), under 100 nM in assay [3] (setting [7]) and over 300 nM in assay [4] (setting [8]).

Consider `COCc1nc(C)c(-c2ccc(F)cc2)c(O)c1C(=O)Nc1ccc(Oc2ccnc3cnc(Cl)cc23)c(F)c1` [Compound 502, N-[4-[(6-Chloro-1,7-naphthyridin-4-yl)oxy]-3-fluorophenyl]-5-(4-fluorophenyl)-4-hydroxy-2-(methoxymethyl)-6-methylpyridine-3-carboxamide], for which the IC50 in assay [1] (setting [5]), in assay [2] (setting [6]), in assay [3] (setting [7]) and in assay [4] (setting [8]) was under 100 nM in each case.

On to `C=C(C)c1cnc2c(Oc3ccc(NC(=O)c4cnc(C)n(-c5ccc(F)cc5)c4=O)cc3)ccnc2c1` [Compound 462, 1-(4-fluorophenyl)-2-methyl-6-oxo-N-[4-[(7-prop-1-en-2-yl-1,5-naphthyridin-4-yl)oxy]phenyl]pyrimidine-5-carboxamide], for which the IC50 in assay [1] (setting [5]), in assay [2] (setting [6]), in assay [3] (setting [7]) and in assay [4] (setting [8]) was under 100 nM each time.

In the case of `COc1cnc2c(Oc3ccc(NC(=O)c4c(C)nc(C)c(-c5ccc(F)c(OC)c5)c4O)cc3F)ccnc2c1` [Compound 688, N-[3-fluoro-4-[(7-methoxy-1,5-naphthyridin-4-yl)oxy]phenyl]-5-(4-fluoro-3-methoxyphenyl)-4-hydroxy-2,6-dimethylpyridine-3-carboxamide], the IC50 in assay [1] (setting [5]), in assay [2] (setting [6]), in assay [3] (setting [7]) and in assay [4] (setting [8]) was under 100 nM throughout.

Turning to `COc1cnc2c(Oc3ccc(NC(=O)c4c(C)n(CC(F)F)cc(-c5ccc(F)cc5OC)c4=O)cc3F)ccnc2c1` [Compound 811, 1-(2,2-difluoroethyl)-N-[3-fluoro-4-[(7-methoxy-1,5-naphthyridin-4-yl)oxy]phenyl]-5-(4-fluoro-2-methoxyphenyl)-2-methyl-4-oxopyridine-3-carboxamide], the IC50 in assay [1] (A-172 cells), in assay [2] (PC-3 cells), in assay [3] (transfected 293A cells) and in assay [4] (HUVEC cells) was under 100 nM in each case.

For `C=C(C)c1cnc2c(Oc3ccc(NC(=O)c4c(C)nc(C)n(-c5ccc(F)cc5)c4=O)cc3F)ccnc2c1` [Compound 466, 1-(4-fluorophenyl)-N-[3-fluoro-4-[(7-prop-1-en-2-yl-1,5-naphthyridin-4-yl)oxy]phenyl]-2,4-dimethyl-6-oxopyrimidine-5-carboxamide], the IC50 in assay [1] (setting [5]), in assay [2] (setting [6]), in assay [3] (setting [7]) and in assay [4] (setting [8]) was under 100 nM throughout.

For the molecule `COc1cc2nccc(Oc3ccc(NC(=O)c4c(C)ncc(-c5ccc(F)c(C)c5)c4O)cc3F)c2nc1OC` [Compound 794, N-[4-[(6,7-dimethoxy-1,5-naphthyridin-4-yl)oxy]-3-fluorophenyl]-5-(4-fluoro-3-methylphenyl)-4-hydroxy-2-methylpyridine-3-carboxamide], the IC50 in assay [1] (setting [5]), in assay [2] (setting [6]), in assay [3] (setting [7]) and in assay [4] (setting [8]) was under 100 nM throughout.

Take `COCCc1nc(C)c(-c2ccc(F)cc2)c(O)c1C(=O)Nc1ccc(Oc2ccnc3cc(OC)c(OC)nc23)c(F)c1` [Compound 785, N-[4-[(6,7-dimethoxy-1,5-naphthyridin-4-yl)oxy]-3-fluorophenyl]-5-(4-fluorophenyl)-4-hydroxy-2-(2-methoxyethyl)-6-methylpyridine-3-carboxamide]: the IC50 in assay [1] (setting [5]), in assay [2] (setting [6]), in assay [3] (setting [7]) and in assay [4] (setting [8]) was under 100 nM in each case.

Take `COc1cc2nccc(Oc3ccc(NC(=O)c4c(C)c(C(C)=O)cn(-c5ccc(F)cc5C)c4=O)cc3F)c2nc1OC` [Compound 739, 5-acetyl-N-[4-[(6,7-dimethoxy-1,5-naphthyridin-4-yl)oxy]-3-fluorophenyl]-1-(4-fluoro-2-methylphenyl)-4-methyl-2-oxopyridine-3-carboxamide]: the IC50 in assay [1] (setting [5]) was under 100 nM; in assay [2] (setting [6]), under 100 nM; in assay [3] (setting [7]), under 100 nM; in assay [4] (setting [8]) it was over 300 nM.

With `COc1cc2nccc(Oc3ccc(NC(=O)c4cn(C5(C)COC5)cc(-c5ccc(F)cc5)c4=O)cc3F)c2cc1OC` [Compound 55, N-[4-(6,7-Dimethoxyquinolin-4-yl)oxy-3-fluorophenyl]-5-(4-fluorophenyl)-1-(3-methyloxetan-3-yl)-4-oxopyridine-3-carboxamide], the IC50 was under 100 nM in assay [1] (setting [5]), under 100 nM in assay [2] (setting [6]), under 100 nM in assay [3] (setting [7]) and over 300 nM in assay [4] (setting [8]).

Turning to `COc1cc2nccc(Oc3ccc(NC(=O)c4c(C)n(CC(F)F)cc(-c5ccc(F)c(C)c5)c4=O)cc3F)c2nc1OC` [Compound 812, 1-(2,2-difluoroethyl)-N-[4-[(6,7-dimethoxy-1,5-naphthyridin-4-yl)oxy]-3-fluorophenyl]-5-(4-fluoro-3-methylphenyl)-2-methyl-4-oxopyridine-3-carboxamide], the 50% inhibitory concentration (IC50) in assay [1] (A-172 cells) is under 100 nM; in assay [2] (PC-3 cells), under 100 nM; in assay [3] (transfected 293A cells) it was under 100 nM; in assay [4] (HUVEC cells), over 300 nM.

As to `COc1cc2nccc(Oc3ccc(NC(=O)c4cc(C(C)=O)cn(-c5ccc(F)cc5)c4=O)cc3)c2nc1OC` [Compound 359, 5-acetyl-N-[4-[(6,7-dimethoxy-1,5-naphthyridin-4-yl)oxy]phenyl]-1-(4-fluorophenyl)-2-oxopyridine-3-carboxamide], the IC50 was under 100 nM in assay [1] (setting [5]), under 100 nM in assay [2] (setting [6]), under 100 nM in assay [3] (setting [7]) and over 300 nM in assay [4] (setting [8]).

Turning to `COc1cnc2c(Oc3ccc(NC(=O)c4c(C)c(Br)c(C)n(-c5ccc(F)cc5)c4=O)cc3F)ccnc2c1` [Compound 314, 5-Bromo-N-[3-fluoro-4-[(7-methoxy-1,5-naphthyridin-4-yl)oxy]phenyl]-1-(4-fluorophenyl)-4,6-dimethyl-2-oxopyridine-3-carboxamide], the concentration for half-maximal inhibition (IC50) in assay [1] (setting [5]), in assay [2] (setting [6]), in assay [3] (setting [7]) and in assay [4] (setting [8]) was under 100 nM throughout.

`COc1cc2nccc(Oc3ccc(NC(=O)c4cn5c(c(-c6ccc(F)cc6)c4=O)COCC5)cc3F)c2nc1OC` [Compound 564, N-[4-[(6,7-Dimethoxy-1,5-naphthyridin-4-yl)oxy]-3-fluorophenyl]-9-(4-fluorophenyl)-8-oxo-3,4-dihydro-1H-pyrido[2,1-c][1,4]oxazine-7-carboxamide]: the IC50 in assay [1] (setting [5]) was under 100 nM; in assay [2] (setting [6]), under 100 nM; in assay [3] (setting [7]), under 100 nM; in assay [4] (setting [8]) it was 100 to 300 nM.
